Common to all, as to assay: DSF Tm panel
What all share (assay type): binding
Holding throughout (conditions): 10 μM compound

The target in experiment [1] is T1, STK10 (Homo sapiens, UniProt O94804).
T1 construct: purchased in-house DSF kinase panel (SGC-style construct names; the trailing letter is the construct ID)

In experiment [2] the target is T2, EPHA2 (EPHA2A) (Homo sapiens, UniProt P29317).
T2 construct: purchased in-house DSF kinase panel (SGC-style construct names; the trailing letter is the construct ID)
T2 sequence (P29317 596-900): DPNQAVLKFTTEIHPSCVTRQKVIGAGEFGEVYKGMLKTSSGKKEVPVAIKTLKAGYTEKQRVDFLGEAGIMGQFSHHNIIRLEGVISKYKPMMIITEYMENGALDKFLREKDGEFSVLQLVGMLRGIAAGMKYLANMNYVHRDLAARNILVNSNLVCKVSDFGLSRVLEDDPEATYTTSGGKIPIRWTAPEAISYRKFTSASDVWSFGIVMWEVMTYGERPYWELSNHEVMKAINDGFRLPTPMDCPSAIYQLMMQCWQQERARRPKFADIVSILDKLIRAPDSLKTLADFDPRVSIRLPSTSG

Experiment [3] deals with T3, CAMK4A (Homo sapiens, UniProt Q16566).
T3 construct: purchased in-house DSF kinase panel (SGC-style construct names; the trailing letter is the construct ID)
T3 sequence (Q16566 1-473): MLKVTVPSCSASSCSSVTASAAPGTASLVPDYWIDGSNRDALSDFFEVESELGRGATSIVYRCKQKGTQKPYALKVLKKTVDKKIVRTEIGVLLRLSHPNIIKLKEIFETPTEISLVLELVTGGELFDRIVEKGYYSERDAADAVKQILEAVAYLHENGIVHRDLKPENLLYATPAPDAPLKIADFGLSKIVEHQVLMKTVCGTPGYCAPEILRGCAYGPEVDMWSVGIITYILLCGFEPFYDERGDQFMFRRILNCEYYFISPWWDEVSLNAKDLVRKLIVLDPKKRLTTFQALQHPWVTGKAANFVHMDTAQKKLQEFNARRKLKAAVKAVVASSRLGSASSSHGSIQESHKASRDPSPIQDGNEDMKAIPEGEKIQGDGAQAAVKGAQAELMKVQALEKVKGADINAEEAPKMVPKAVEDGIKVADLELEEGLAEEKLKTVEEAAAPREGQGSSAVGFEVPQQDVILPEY
On the procedure:
(§1) The synthesized urea-based derivatives were evaluated in a panel of kinases by differential scanning fluorescence (DSF) to investigate their selectivity profile. A positive ΔT m in the DSF assay indicates stabilization of the protein upon ligand binding in comparison to its apo state, with higher thermal shifts generally correlating with stronger binding. For this purpose, we used our internal kinase selectivity panel (∼90 kinases) along with staurosporine as a positive control. […] This was also reflected in the overall low selectivity score (S) throughout the series, which is determined by the ratio between the number of kinases that are stabilized above 5 °C and the total number of kinases tested (Figure ). Motivated by these findings, we further validated the entire series by orthogonal binding and activity assays to determine the in vitro and cellular potency and selectivity of the developed series in comparison to the selected reference compounds. […]
(§2) was performed as previously described.[1,2] Briefly, recombinant protein kinase domains at a concentration of 2 μM were mixed with 10 μM compound in a buffer containing 20 mM HEPES, […]
(§3) probe (1 µl per mL). Subsequently, temperature-dependent protein unfolding profiles were […]
(§4) emission filters were set to 465 nm and 590 nm, respectively. The temperature was raised with a step rate of 3 °C per minute. […]
(§5) inflection point of the transition curve. […]
(§6) previously.[3] In brief, STK10, STK3, STK4 and SLK were obtained as plasmids cloned in […]
(§7) Plasmids were transfected into
(§8) KD concentration taken from TracerDB (tracerdb.org)[4] were pipetted into white 384-well

Experiment [4] concerns TAF1A. On the procedure: as §1, §2, §3, §4, §5, §6, §7, §8
The target of experiment [5] is T4, CAMK2DA (Homo sapiens, UniProt Q13557).
T4 construct: purchased in-house DSF kinase panel (SGC-style construct names; the trailing letter is the construct ID)

The target of experiment [6] is T5, EPHA7A (Homo sapiens, UniProt Q15375).
T5 construct: purchased in-house DSF kinase panel (SGC-style construct names; the trailing letter is the construct ID)

Experiment [7] addresses T6, VRK1A (Homo sapiens, UniProt Q99986).
T6 construct: purchased in-house DSF kinase panel (SGC-style construct names; the trailing letter is the construct ID)
T6 sequence (Q99986 1-396): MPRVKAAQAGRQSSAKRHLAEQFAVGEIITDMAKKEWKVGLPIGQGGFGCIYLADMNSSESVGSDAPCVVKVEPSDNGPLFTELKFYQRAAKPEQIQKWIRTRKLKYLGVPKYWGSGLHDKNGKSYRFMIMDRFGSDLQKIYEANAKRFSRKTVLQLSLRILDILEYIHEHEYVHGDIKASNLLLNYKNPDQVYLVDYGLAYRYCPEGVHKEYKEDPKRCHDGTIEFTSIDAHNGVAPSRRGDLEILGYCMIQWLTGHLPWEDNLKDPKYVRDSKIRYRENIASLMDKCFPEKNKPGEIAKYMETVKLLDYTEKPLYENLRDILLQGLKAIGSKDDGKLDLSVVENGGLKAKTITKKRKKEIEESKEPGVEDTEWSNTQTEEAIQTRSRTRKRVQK

Experiment [8] deals with T7, DMPK1A (Homo sapiens, UniProt Q09013).
T7 construct: purchased in-house DSF kinase panel (SGC-style construct names; the trailing letter is the construct ID)
T7 sequence (Q09013 1-629): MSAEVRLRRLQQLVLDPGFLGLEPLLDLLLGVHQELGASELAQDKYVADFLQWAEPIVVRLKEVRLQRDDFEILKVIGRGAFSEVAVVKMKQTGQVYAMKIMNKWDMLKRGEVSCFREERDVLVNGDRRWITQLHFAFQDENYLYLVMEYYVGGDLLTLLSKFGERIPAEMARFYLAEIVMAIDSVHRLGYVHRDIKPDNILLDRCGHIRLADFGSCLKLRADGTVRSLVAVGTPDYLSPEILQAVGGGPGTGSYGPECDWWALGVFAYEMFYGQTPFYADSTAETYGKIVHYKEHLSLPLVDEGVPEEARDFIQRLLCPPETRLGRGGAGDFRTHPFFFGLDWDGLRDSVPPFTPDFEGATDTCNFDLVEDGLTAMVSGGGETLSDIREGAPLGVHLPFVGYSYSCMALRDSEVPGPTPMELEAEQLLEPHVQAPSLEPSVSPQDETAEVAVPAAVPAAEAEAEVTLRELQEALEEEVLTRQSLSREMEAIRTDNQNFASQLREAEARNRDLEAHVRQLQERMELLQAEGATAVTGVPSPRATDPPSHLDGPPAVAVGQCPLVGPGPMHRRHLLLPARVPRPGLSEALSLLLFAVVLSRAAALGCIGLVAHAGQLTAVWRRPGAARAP

Experiment [9] concerns the target T8, CAMK2BA (Homo sapiens, UniProt Q13554).
T8 construct: purchased in-house DSF kinase panel (SGC-style construct names; the trailing letter is the construct ID)

The target in experiment [10] is T9, MARK3A (Homo sapiens, UniProt P27448).
T9 construct: purchased in-house DSF kinase panel (SGC-style construct names; the trailing letter is the construct ID)

In experiment [11] the target is T10, CLK1A (Homo sapiens, UniProt P49759).
T10 construct: purchased in-house DSF kinase panel (SGC-style construct names; the trailing letter is the construct ID)

The text below walks through data of paper PMC12621043, “Un-LOK-ing a New Approach for Conformational Selective Targeting of STK10 (LOK)” (ACS Medicinal Chemistry Letters, 2025).

For orientation: ΔTm means the change in melting temperature against a reference sample.

T9 sequence (P27448 56-307): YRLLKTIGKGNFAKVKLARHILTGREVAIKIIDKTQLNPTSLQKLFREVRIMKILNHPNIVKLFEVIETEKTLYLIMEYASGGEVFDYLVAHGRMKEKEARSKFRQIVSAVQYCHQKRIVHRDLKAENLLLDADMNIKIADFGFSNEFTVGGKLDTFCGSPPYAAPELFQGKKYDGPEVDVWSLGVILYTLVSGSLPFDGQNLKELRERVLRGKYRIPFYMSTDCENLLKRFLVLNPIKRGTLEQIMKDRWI
T4 sequence (Q13557 11-309): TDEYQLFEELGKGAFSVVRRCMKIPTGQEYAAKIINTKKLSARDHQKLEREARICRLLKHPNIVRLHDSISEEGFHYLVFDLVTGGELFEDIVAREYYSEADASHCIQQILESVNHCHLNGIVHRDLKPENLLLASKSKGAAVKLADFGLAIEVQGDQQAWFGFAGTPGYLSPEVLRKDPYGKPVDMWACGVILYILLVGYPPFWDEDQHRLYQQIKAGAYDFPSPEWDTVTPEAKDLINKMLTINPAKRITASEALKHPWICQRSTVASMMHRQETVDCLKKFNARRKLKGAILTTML
T10 sequence (P49759 148-484): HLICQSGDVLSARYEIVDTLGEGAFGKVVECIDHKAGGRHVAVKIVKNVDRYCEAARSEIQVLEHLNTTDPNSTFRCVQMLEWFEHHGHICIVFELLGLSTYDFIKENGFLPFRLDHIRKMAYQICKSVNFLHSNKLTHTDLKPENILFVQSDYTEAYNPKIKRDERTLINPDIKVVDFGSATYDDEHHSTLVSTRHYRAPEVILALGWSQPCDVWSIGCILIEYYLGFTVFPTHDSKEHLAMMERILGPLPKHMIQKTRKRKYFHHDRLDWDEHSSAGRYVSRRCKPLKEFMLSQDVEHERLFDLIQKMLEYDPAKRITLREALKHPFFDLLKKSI
T8 sequence (Q13554 11-303): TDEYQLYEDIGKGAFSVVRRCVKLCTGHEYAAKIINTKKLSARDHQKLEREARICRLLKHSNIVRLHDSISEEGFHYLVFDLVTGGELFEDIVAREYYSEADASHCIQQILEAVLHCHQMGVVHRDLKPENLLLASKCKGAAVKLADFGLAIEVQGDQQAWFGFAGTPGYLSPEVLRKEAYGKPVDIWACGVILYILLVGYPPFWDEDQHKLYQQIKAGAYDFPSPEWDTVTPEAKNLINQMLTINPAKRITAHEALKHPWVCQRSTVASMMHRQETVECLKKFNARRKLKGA
T5 sequence (Q15375 590-899): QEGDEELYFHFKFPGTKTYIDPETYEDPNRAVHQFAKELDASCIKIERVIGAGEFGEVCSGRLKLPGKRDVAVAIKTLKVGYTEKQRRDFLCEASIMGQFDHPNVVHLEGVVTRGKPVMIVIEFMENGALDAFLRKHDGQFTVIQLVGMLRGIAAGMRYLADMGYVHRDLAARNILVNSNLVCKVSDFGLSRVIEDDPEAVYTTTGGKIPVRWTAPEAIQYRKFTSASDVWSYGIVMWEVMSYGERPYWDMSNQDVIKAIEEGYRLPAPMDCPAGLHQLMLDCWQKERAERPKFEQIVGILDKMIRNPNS
T1 sequence (O94804 18-317 limits assumed): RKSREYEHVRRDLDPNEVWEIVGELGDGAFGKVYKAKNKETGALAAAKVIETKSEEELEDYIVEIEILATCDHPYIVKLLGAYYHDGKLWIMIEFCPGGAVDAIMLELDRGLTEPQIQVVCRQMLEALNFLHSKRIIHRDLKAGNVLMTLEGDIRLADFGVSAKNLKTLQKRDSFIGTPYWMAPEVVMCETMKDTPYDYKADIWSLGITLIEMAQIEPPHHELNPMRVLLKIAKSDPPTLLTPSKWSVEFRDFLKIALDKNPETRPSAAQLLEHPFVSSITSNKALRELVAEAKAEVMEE

With `O=C(NCc1ccccc1)Nc1ccc2cc1OCCOCCNc1ccn3ncc-2c3n1` [compound 16], the ΔTm at 10 µM was 6.9 °C in [1]; 0.8 °C in [2]; 0.5 °C in experiment [3]; 0.2 °C in [5]; -0.1 °C in experiment [6]; -0.4 °C in experiment [7]. Moreover, the shift in melting temperature (ΔTm) at 10 µM in experiment [8] was 0.3 °C; in experiment [9] it was 1.3 °C; in [10], 0.7 °C; in experiment [11], 3.4 °C. The “ΔTm TAF1A” value in experiment [4] was 0,4 °C.

Take `O=C(NCc1ccccc1Cl)Nc1ccc2cc1OCCOCCNc1ccn3ncc-2c3n1` [compound 17]: the ΔTm at 10 µM in [1] is 8.5 °C; in experiment [2], 0.5 °C; in experiment [3] it was 0.6 °C; in [5] it was 0.4 °C; in experiment [6], 0.4 °C; in [7], 0.1 °C. Moreover, the thermal shift (ΔTm) at 10 µM in experiment [8] is -0.1 °C; in experiment [9], 0.3 °C; in experiment [10] it was 0.8 °C; in [11], 4.5 °C. Also, the “ΔTm TAF1A” value in experiment [4] is 0,5 °C.

`O=C(NCc1cccc(Cl)c1)Nc1ccc2cc1OCCOCCNc1ccn3ncc-2c3n1` [compound 18]: the shift in melting temperature (ΔTm) at 10 µM in experiment [1] is 9.4 °C; in [2], 0.6 °C; in [3], 1.3 °C; in experiment [5] it was 0.5 °C; in [6], 0.8 °C; in experiment [7], 0.3 °C. Further, the thermal shift (ΔTm) at 10 µM in experiment [8] turned out to be 0.1 °C; in [9], 0.8 °C; in experiment [10] it was 0.7 °C; in experiment [11] it was 2.9 °C. In experiment [4], the “ΔTm TAF1A” value is 0,5 °C.

As to `O=C(NCc1ccc(Cl)cc1)Nc1ccc2cc1OCCOCCNc1ccn3ncc-2c3n1` [compound 19], the ΔTm at 10 µM in experiment [1] was 10 °C; in experiment [2], 0.2 °C; in [3], 1 °C; in [5], -0.1 °C; in [6], 0.4 °C; in experiment [7] it was 0.1 °C. Besides, the ΔTm at 10 µM in experiment [8] was 0.3 °C; in [9], -0.1 °C; in [10], 0.2 °C; in experiment [11], 2.1 °C. Further, the “ΔTm TAF1A” value in experiment [4] was -0,4 °C.

For `O=C(NCc1ccc(Cl)cc1Cl)Nc1ccc2cc1OCCOCCNc1ccn3ncc-2c3n1` [compound 20], the ΔTm at 10 µM in [1] is 9.6 °C; in experiment [2], 0.4 °C; in experiment [3] it was 0.4 °C; in [5], 0.9 °C; in experiment [6], 1 °C; in experiment [7] it was 0.4 °C. In addition, the shift in melting temperature (ΔTm) at 10 µM in experiment [8] is 0.7 °C; in experiment [9] it was 1.6 °C; in experiment [10], 1.7 °C; in experiment [11] it was 2.1 °C. For the same molecule, the “ΔTm TAF1A” value in [4] is 0,6 °C.

For `O=C(NCc1ccc(Cl)cc1F)Nc1ccc2cc1OCCOCCNc1ccn3ncc-2c3n1` [compound 21], the ΔTm at 10 µM in [1] came to 7.3 °C; in [2] it was 0.5 °C; in experiment [3], 0.9 °C; in [5] it was 0.8 °C; in experiment [6], 1.9 °C; in [7], 0.9 °C. Moreover, the shift in melting temperature (ΔTm) at 10 µM in experiment [8] was 0.2 °C; in [9], 0.8 °C; in experiment [10] it was 1.5 °C; in experiment [11], 2.8 °C. Besides, the “ΔTm TAF1A” value in experiment [4] was 0,4 °C.

As to `Cc1cc(Cl)ccc1CNC(=O)Nc1ccc2cc1OCCOCCNc1ccn3ncc-2c3n1` [compound 23], the shift in melting temperature (ΔTm) at 10 µM in experiment [1] was determined as 11.1 °C; in [2], 0.5 °C; in experiment [3], 0.6 °C; in [5] it was 1.7 °C; in [6], 1 °C; in experiment [7] it was 0.8 °C. The ΔTm at 10 µM was 0.5 °C in experiment [8], 0.9 °C in [9], 2.4 °C in experiment [10] and 2.6 °C in experiment [11]. The “ΔTm TAF1A” value in experiment [4] is 0,6 °C.

Regarding `Cc1cc(Br)ccc1CNC(=O)Nc1ccc2cc1OCCOCCNc1ccn3ncc-2c3n1` [compound 24], the shift in melting temperature (ΔTm) at 10 µM in [1] was found to be 8.3 °C; in experiment [2], 0.2 °C; in experiment [3] it was 0.8 °C; in [5], 2.2 °C; in [6], 2 °C; in experiment [7], 1 °C. Moreover, the thermal shift (ΔTm) at 10 µM in experiment [8] is 0.3 °C; in experiment [9] it was -0.2 °C; in experiment [10], 0.8 °C; in [11], 1 °C. Also, in experiment [4], the “ΔTm TAF1A” value is 0,1 °C.

Take `Cc1ccc(F)cc1CNC(=O)Nc1ccc2cc1OCCOCCNc1ccn3ncc-2c3n1` [compound 26]: the ΔTm at 10 µM in experiment [1] was found to be 9.2 °C; in experiment [2], 0.3 °C; in [3], 0.8 °C; in [5], 2.4 °C; in experiment [6] it was 2 °C; in experiment [7], 0.5 °C. The ΔTm at 10 µM in experiment [8] amounted to 0.3 °C; in experiment [9], 0 °C; in experiment [10], 0.2 °C; in experiment [11] it was 2.1 °C. Moreover, the “ΔTm TAF1A” value in experiment [4] was 0,1 °C.

Consider `O=C(NCc1ccccc1C(F)(F)F)Nc1ccc2cc1OCCOCCNc1ccn3ncc-2c3n1` [compound 27], for which the ΔTm at 10 µM in experiment [1] stood at 10.2 °C; in experiment [2], 0.2 °C; in [3] it was 1.2 °C; in [5], 2.5 °C; in experiment [6], 3 °C; in experiment [7], 0.4 °C. The shift in melting temperature (ΔTm) at 10 µM was 0.2 °C in experiment [8], -0.1 °C in experiment [9], 1.4 °C in [10] and 2.3 °C in experiment [11]. In addition, in [4], the “ΔTm TAF1A” value was 0,1 °C.
